According to patent US7799809B2, “Carboxamide compounds and their use as calpain inhibitors” (Abbott GmbH & Co. KG, priority 2006, dated 2010):

Experiments:
Format in all cases: biochemical
[1] = target: T1, cathepsin B (Homo sapiens, UniProt P07858); test: Cathepsin B enzyme inhibition in vitro (kinetic fluorescence assay); conditions: cathepsin B isolated from human liver vs calpain I
T1 construct: cathepsin B—isolated from human liver (Calbiochem #219362); purchased Calbiochem 219362; host or cells: human liver (tissue-derived)
Method in brief: (§1)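 Kinetic fluorescence (ex 390/em 460 nm) at room temperature in 50 mM MES, 2 mM EDTA, 0.05% Brij 35, 2.5 mM L-cysteine, pH 6.0. Cathepsin B (liver, 0.25 nM) with 100 μM Z-Phe-Arg-AMC; cathepsin L (liver, 1 nM) with 2 μM Z-Phe-Arg-AMC; recombinant E. coli cathepsin S (0.5 nM) with 20 μM Z-Val-Val-Arg-AMC. Ki via Cheng-Prusoff.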

[2] = target: T2, cathepsin K (Homo sapiens, UniProt P43235); test: Cathepsin K enzyme inhibition in vitro (kinetic fluorescence assay); conditions: cathepsin K activated from recombinant human procathepsin K vs calpain I
T2 construct: purchased Calbiochem 342001; host or cells: E. coli
T2 sequence (P43235 115-329): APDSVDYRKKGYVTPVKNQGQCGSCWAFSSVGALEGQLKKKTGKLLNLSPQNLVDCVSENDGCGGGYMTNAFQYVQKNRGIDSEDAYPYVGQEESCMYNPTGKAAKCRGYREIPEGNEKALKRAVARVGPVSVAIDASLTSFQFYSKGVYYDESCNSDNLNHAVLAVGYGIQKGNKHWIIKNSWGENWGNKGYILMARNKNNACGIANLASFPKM
Protocol: The following solutions and buffers were employed: • HBS (for 40 ml): 800 μl M HEPES; 2.16 ml 100 mM KCl; 4.8 ml 1M NaCl; 3.59 ml 5% glucose; 60 μl μM MgSO4; 400 μl 100 mM Na pyruvate, 28.19 ml water; pH 7.2-7.5. • lysis buffer (for 20 ml): 400 μl M Tris pH 8.2; 2.74 ml 1M NaCl; 520 μl 0.5M EDTA; 2 ml 10% triton X-100; 0.8 ml (=1:25) CompletePlus (1 tablet/2 ml H2O); 200 μl 100 mM Pefabloc; 13.34 ml water, pH 8.2. • TBST (10×) (for 1 l): 100 mM Tris (12.1 g); 1.5M NaCl (87 g); 1% Tween 20 (10 g), adjusted to pH 8. I Enzyme Inhibition In Vitro: • Testing for blockade of the corresponding enzymic activities was carried out by means of kinetic fluorescence assays (excitation 390 nm, emission 460 nm). • Apparent Ki values were calculated from the experimentally determined IC50 values by the Cheng-Prussoff relation assuming a reversible competitive enzyme inhibition. The Km values of the substrates used under the assay conditions indicated above were: 90 μM (Z-Phe-Arg-AMC, cathepsin B), 10 μM (Z-Gly-Pro-Arg-AMC, cathepsin K), 2 μM (Z-Phe-Arg-AMC, cathepsin L), and 30 μM (Z-Val-Val-Arg-AMC, cathepsin S). • The indicated Ki values are averages of the inhibition constants calculated on the basis of 2 to 4 independent dose-effect plots.
The following assays were used: • 1. Calpain I: • 20 nM calpain-I—isolated from human erythrocytes (Calbiochem #208713), 100 μM Suc-Leu-Tyr-AMC (Bachem #1-1355) as substrate in buffer with 62 mM imidazole, 0.3 mM CaCl2, 0.10% CHAPS, 0.05% BSA, 1 mM DTT at pH 7.3 and room temperature. • 2. Cathepsin B: • 0.25 nM cathepsin B—isolated from human liver (Calbiochem #219362), 100 μM Z-Phe-Arg-AMC (Bachem #I-1160) as substrate 50 mM MES, 2 mM EDTA, 0.05% Brij 35, 2.5 mM L-cysteine, pH 6.0, room temperature. • 3. Cathepsin K: • 3 nM cathepsin K—activated from recombinant human procathepsin K from E. coli (Calbiochem #342001), 10 μM Z-Gly-Pro-Arg-AMC (Biomol #P-142) as substrate in 50 mM MES, 2 mM EDTA, 0.05% Brij 35, 2.5 mM L-cysteine, pH 6.0, room temperature. • 4. Cathepsin L: • 1 nM cathepsin L—isolated from human liver (Calbiochem #219402), 2 μM Z-Phe-Arg-AMC (Bachem #1-1160) as substrate in 50 mM MES, 2 mM EDTA, 0.05% Brij 35, 2.5 mM L-cysteine, pH 6.0, room temperature. • 5. Cathepsin S: • 0.5 nM recombinant human cathepsin S from E. coli (Calbiochem #219343), 20 μM Z-Val-Val-Arg-AMC (Bachem #1-1540) as substrate in 50 mM MES, 2 mM EDTA, 0.05% Brij 35, 2.5 mM L-cysteine, pH 6.0, room temperature. • The results of the in vitro determination are indicated in Table 1. The following abbreviations are used in Table 1: • The “Calpain activity” column, ++ stands for a calpain Ki (Ki(calpain)) of ≦40 nM and + means: 40 nM<Ki(Calpain)≦100 nM. • The “Sel. cat. B” column indicates the Ki(cathepsin B)/Ki(calpain) ratio. In this connection, ++ means a Ki(cathepsin B)/Ki(calpain) ratio of ≧30 and + means 10≦Ki(cathepsin B)/Ki(calpain)<30. • The “Sel. cat. K” column indicates the Ki(cathepsin K)/Ki(calpain) ratio. In this connection, ++ means a Ki(cathepsin K)/Ki(calpain) ratio of ≧30 and + means 10≦Ki(cathepsin K)/Ki(calpain)<30. • The “Sel. cat. L” column indicates the Ki(cathepsin L)/Ki(calpain) ratio. In this connection, ++ means a Ki(cathepsin L)/Ki(calpain) ratio of ≧50 and + means 30≦Ki(cathepsin L)/Ki(calpain)<50. • The “Sel. cat. S” column indicates the Ki(cathepsin S)/Ki(calpain) ratio. In this connection, ++ means a Ki(cathepsin S)/Ki(calpain) ratio of ≧100 and + means 50≦Ki(cathepsin S)/Ki(calpain)<100.

[3] = target: T3, cathepsin L (Homo sapiens, UniProt P07711); test: Cathepsin L enzyme inhibition in vitro (kinetic fluorescence assay); conditions: cathepsin L isolated from human liver vs calpain I
T3 construct: cathepsin L—isolated from human liver (Calbiochem #219402); purchased Calbiochem 219402; host or cells: human liver (tissue-derived)
Method in brief: as §1

[4] = target: T4, cathepsin S (Homo sapiens, UniProt P25774); test: Cathepsin S enzyme inhibition in vitro (kinetic fluorescence assay); conditions: recombinant human cathepsin S vs calpain I
T4 construct: purchased Calbiochem 219343; host or cells: E. coli
Method in brief: as §1

T3 sequence (P07711 114-333): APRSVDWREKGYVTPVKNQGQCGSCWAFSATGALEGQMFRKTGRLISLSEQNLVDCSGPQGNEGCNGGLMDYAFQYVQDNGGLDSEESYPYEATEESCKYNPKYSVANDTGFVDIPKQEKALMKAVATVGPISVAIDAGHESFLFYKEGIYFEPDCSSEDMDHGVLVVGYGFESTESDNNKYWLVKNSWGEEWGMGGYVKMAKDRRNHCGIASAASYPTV
T4 sequence (P25774 115-331): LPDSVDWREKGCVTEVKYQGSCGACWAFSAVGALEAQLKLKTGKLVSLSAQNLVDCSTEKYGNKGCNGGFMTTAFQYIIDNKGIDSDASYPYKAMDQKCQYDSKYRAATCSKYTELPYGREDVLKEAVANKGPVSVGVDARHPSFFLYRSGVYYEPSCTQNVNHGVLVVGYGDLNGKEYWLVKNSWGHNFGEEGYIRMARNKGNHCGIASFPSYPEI

SMILES	Sel cat. B: Ki(cathepsin B)/Ki(calpain) ratio [1]	Sel cat. K: Ki(cathepsin K)/Ki(calpain) ratio [2]	Sel cat. L: Ki(cathepsin L)/Ki(calpain) ratio [3]	Sel cat. S: Ki(cathepsin S)/Ki(calpain) ratio [4]
NC(=O)C(=O)C(Cc1ccccc1)NC(=O)c1cccnc1-n1ccc(-c2ccc(C(F)(F)F)cc2)n1 (stereo not drawn) [Example 60, N-(3-Amino-1-benzyl-2,3-dioxopropyl)-2-{3-[4-(trifluoromethyl)phenyl]-1H-pyrazol-1-yl}nicotinamide]	+ (+ means 10≦Ki(cathepsin B)/Ki(calpain)<30)	+ (+ means 10≦Ki(cathepsin K)/Ki(calpain)<30)	++ (++ means a Ki(cathepsin L)/Ki(calpain) ratio of ≧50)	+ (+ means 50≦Ki(cathepsin S)/Ki(calpain)<100)
NC(=O)C(=O)C(Cc1ccccc1)NC(=O)c1cccnc1-n1cc2c(n1)-c1ccccc1CC2 (stereo not drawn) [Example 63, N-(3-Amino-1-benzyl-2,3-dioxopropyl)-2-(4,5-dihydro-2H-benzo[g]indazol-2-yl)nicotinamide]	+ (+ means 10≦Ki(cathepsin B)/Ki(calpain)<30)	+ (+ means 10≦Ki(cathepsin K)/Ki(calpain)<30)	++ (++ means a Ki(cathepsin L)/Ki(calpain) ratio of ≧50)	++ (++ means a Ki(cathepsin S)/Ki(calpain) ratio of ≧100)
NC(=O)C(=O)C(Cc1ccc(Cl)cc1)NC(=O)c1cccnc1-n1ccc(-c2ccc(F)cc2)n1 (stereo not drawn) [Example 67, N-[3-Amino-1-(4-chlorobenzyl)-2,3-dioxopropyl]-2-[3-(4-fluorophenyl)-1H-pyrazol-1-yl]nicotinamide]	+ (+ means 10≦Ki(cathepsin B)/Ki(calpain)<30)	+ (+ means 10≦Ki(cathepsin K)/Ki(calpain)<30)	++ (++ means a Ki(cathepsin L)/Ki(calpain) ratio of ≧50)	++ (++ means a Ki(cathepsin S)/Ki(calpain) ratio of ≧100)
NC(=O)C(=O)C(Cc1ccccc1)NC(=O)c1cccnc1-n1ccc(-c2ccc(N3CCCC3)cc2)n1 (stereo not drawn) [Example 69, N-(3-Amino-1-benzyl-2,3-dioxopropyl)-2-[3-(4-pyrrolidin-1-ylphenyl)-1H-pyrazol-1-yl]nicotinamide]	+ (+ means 10≦Ki(cathepsin B)/Ki(calpain)<30)	+ (+ means 10≦Ki(cathepsin K)/Ki(calpain)<30)	++ (++ means a Ki(cathepsin L)/Ki(calpain) ratio of ≧50)	++ (++ means a Ki(cathepsin S)/Ki(calpain) ratio of ≧100)
NC(=O)C(=O)C(Cc1ccccc1)NC(=O)c1cccnc1-n1ccc(-c2cccc(Cl)c2)n1 (stereo not drawn) [Example 70, N-(3-Amino-1-benzyl-2,3-dioxopropyl)-2-[3-(3-chlorophenyl)-1H-pyrazol-1-yl]nicotinamide]	+ (+ means 10≦Ki(cathepsin B)/Ki(calpain)<30)	+ (+ means 10≦Ki(cathepsin K)/Ki(calpain)<30)	++ (++ means a Ki(cathepsin L)/Ki(calpain) ratio of ≧50)	++ (++ means a Ki(cathepsin S)/Ki(calpain) ratio of ≧100)
NC(=O)C(=O)C(Cc1ccccc1)NC(=O)c1cccnc1-n1ccc(-c2ccc(F)cc2Cl)n1 (stereo not drawn) [Example 71, N-(3-Amino-1-benzyl-2,3-dioxopropyl)-2-[3-(2-chloro-4-fluorophenyl)-1H-pyrazol-1-yl]nicotinamide]	++ (++ means a Ki(cathepsin B)/Ki(calpain) ratio of ≧30)	++ (++ means a Ki(cathepsin K)/Ki(calpain) ratio of ≧30)	++ (++ means a Ki(cathepsin L)/Ki(calpain) ratio of ≧50)	++ (++ means a Ki(cathepsin S)/Ki(calpain) ratio of ≧100)
NC(=O)C(=O)C(Cc1ccccc1)NC(=O)c1cccnc1-n1ccc(-c2ccccc2C(F)(F)F)n1 (stereo not drawn) [Example 72, N-(3-Amino-1-benzyl-2,3-dioxopropyl)-2-{3-[2-(trifluoromethyl)phenyl]-1H-pyrazol-1-yl}nicotinamide]	+ (+ means 10≦Ki(cathepsin B)/Ki(calpain)<30)	+ (+ means 10≦Ki(cathepsin K)/Ki(calpain)<30)	+ (+ means 30≦Ki(cathepsin L)/Ki(calpain)<50)	++ (++ means a Ki(cathepsin S)/Ki(calpain) ratio of ≧100)
NC(=O)C(=O)C(Cc1ccccc1)NC(=O)c1cccnc1-n1ccc(-c2ccccc2F)n1 (stereo not drawn) [Example 76, N-(3-Amino-1-benzyl-2,3-dioxopropyl)-2-[3-(2-fluorophenyl)-1H-pyrazol-1-yl]nicotinamide]	++ (++ means a Ki(cathepsin B)/Ki(calpain) ratio of ≧30)	+ (+ means 10≦Ki(cathepsin K)/Ki(calpain)<30)	++ (++ means a Ki(cathepsin L)/Ki(calpain) ratio of ≧50)	++ (++ means a Ki(cathepsin S)/Ki(calpain) ratio of ≧100)
NC(=O)C(=O)C(Cc1ccccc1)NC(=O)c1cccnc1-n1ccc(-c2ccc(Cl)cc2Cl)n1 (stereo not drawn) [Example 79, N-(3-Amino-1-benzyl-2,3-dioxopropyl)-2-[3-(2,4-dichlorophenyl)-1H-pyrazol-1-yl]nicotinamide]	++ (++ means a Ki(cathepsin B)/Ki(calpain) ratio of ≧30)	++ (++ means a Ki(cathepsin K)/Ki(calpain) ratio of ≧30)	++ (++ means a Ki(cathepsin L)/Ki(calpain) ratio of ≧50)	++ (++ means a Ki(cathepsin S)/Ki(calpain) ratio of ≧100)
